Consider 1 substance from patent publication US20160010086A1, “OLIGOMERIC COMPOUNDS AND EXCIPIENTS” (ISIS PHARMACEUTICALS, INC., priority 2009, published 2016).

One series relates to PTEN mRNA. Briefly: Antisense activity (pharmacodynamics) of ISIS 116847 in mouse liver. The class given is in vivo, mice. The protocol: Tissues are homogenized in guanidine isothyocyanate buffer (4 M guanidine isothiocyanate, 25 mM EDTA, 1 M β-mercaptoethanol, 50 mM Tris-HCl, pH 6) immediately following sacrifice. RNA is extracted using RNeasy columns (Qiagen) according to manufacturer's protocol. RNA is eluted from the columns with water. RNA samples are analyzed by fluorescence-based quantitative RT-PCR using an Applied Biosystems 7700 sequence detector. Levels of target RNAs as well as those of cyclophilin A, a housekeeping gene, are determined. Target RNA levels were normalized to cyclophilin levels for each RNA sample. Primers used for determination of PTEN RNA level are as follows: FP 5′ […] 3′ (SEQ ID NO: 3), RP 5′ […] 3′ (SEQ ID NO: 4), and PR 5′ 6FAM-[…]-TAMRA 3′(SEQ ID NO 5). Primers used for determination of cyclophilin A RNA level are as follows: FP 5′ TCGCCGCTTGCTGCA 3′(SEQ ID NO: 6), RP 5′ ATCGGCCGTGATGTCGA 3′(SEQ ID NO: 7), and PR 5′ 6FAM-[…]-TAMRA 3′(SEQ ID NO: 8).

The conditions of series [1]: mouse, in vivo.

With “5′-CTGCT agcctctgga TTTGA-3′ (CTGCTAGCCTCTGGATTTGA; chemistry not given here) [ISIS 116847]”, the “activity of the active antisense oligonucleotide” value with PTEN mRNA (co-administered with a nonsense oligonucleotide) is recorded as “enhanced”. The “pharmacodynamics with increased liver drug concentration” value with PTEN mRNA (slower infusion, lowest doses) was “did not provide improved pharmacodynamics”. Further, the “uptake in whole liver” value in series [1] is recorded as “favored at lower plasma concentrations”.
